What was measured:
[1] = system: Nfkbia (IκBα); test: Nfkbia expression in IL1β-stressed INS1 cells (qPCR); type: cell-based, rat
Method: Samples were run in triplicate and expression was normalized to the levels of the housekeeping controls Rplp0 (36b4) for human and mouse. Samples were analyzed by qPCR, using SYBR Green dye (Bio-rad). Statistical comparisons were made using Student's t test. Error bars are mean±SEM. Primers used are shown below: INS1 cells were cultured at 37° C. in 5% C02 in air in RPMI-1640 (Sigma Aldrich) supplemented with 10% (v/v) fetal bovine serum, 1% (v/v) Antibiotic-Antimycotic (Gibco) 10 mM HEPES, 2 mM glutamax, 1 mM sodium pyruvate, and 50 μM β-mercaptoethanol (RPMI for INS1 medium). INS1 cells were transfected with Lipofectamine RNAiMAX (Invitrogen) for 24 hr, […] (VDR: L-097753-02-0005, PCAF: L-085879-02-0005, BAF180: L-088113-02-0005, non-targeting pool: D-001810-10-05).

[2] = system: h-IAPP mouse islets; test: Islets from aged h-IAPP transgenic mice treated ex vivo (qPCR); type: cell-based; conditions: 72 hr ex vivo, 15 month old mice
Method: (§1) Samples were run in triplicate and expression was normalized to the levels of the housekeeping controls Rplp0 (36b4) for human and mouse. Samples were analyzed by qPCR, using SYBR Green dye (Bio-rad). Statistical comparisons were made using Student's t test. Error bars are mean±SEM. Primers used are shown below: Mouse pancreatic islets were isolated as previously described (Yoshihara et al., 2010, Nat. Commun 1:127) with slight modification. Briefly, 0.5 mg/ml collagenase P (Roche REF 1213873001, diluted in HBSS buffer, GIBCO, 14170-112) was injected through the common bile duct, and the perfused pancreas dissected and incubated at 37° C. for 21 min. Digested exocrine cells and intact islets were separated via centrifugation (900×g for 15 min) over Histopaque-1077 (Sigma, H8889), and intact islets were manually selected. Human islets were provided by the Integrated Islets Distribution Program (see details below).

[3] = system: human islets; test: Human islets under cytokine stress, transmission electron microscopy; type: cell-based; conditions: 24 hours
Method: as §1, with “Mouse” for “Samples were run in triplicate and expression was normalized to the levels of the housekeeping controls Rplp0 (36b4) for human and mouse. Samples were analyzed by qPCR, using SYBR Green dye (Bio-rad). Statistical comparisons were made using Student's t test. Error bars are mean±SEM. Primers used are shown below: Mouse”
Islets in suspension were pelleted in 2% low melting point agarose and subsequently fixed in 2.5% glutaraldehyde with 2% paraformaldehyde in 0.15M cacodylate buffer containing 2 mM calcium chloride, pH 7.4, for one hour at 4° C. The pellet was trimmed down to contain the minimal amount of agarose possible, washed in buffer, and secondarily fixed in 1% osmium tetroxide/0.3% potassium ferrocyanide in buffer. Subsequently, the pellet was washed in water and en bloc stained with 2% uranyl acetate followed by a graded dehydration in ethanol (35%, 50%, 70%, 90%, 100%, 100%). […]

[4] = system: db/db (BKS) mice; test: db/db (BKS) mouse T2D model treatment; type: in vivo
Method: The following mice strains were from Jackson: VDR KO (B6.129S4-Vdrtm1Mbd/J), B6 db (B6.BKS(D)-Leprdb/J), BKS db (BKS.Cg-Dock7m+/+ Leprdb/J), C57BL6/J. Animals were maintained in a specific pathogen-free animal facility on a 12-hr light-dark cycle at an ambient temperature of 23° C. Water and food were provided ad lib. All animal experiments used age-matched male mice. VDR KO and control littermate mice were maintained on a VDR KO rescue diet containing 21% calcium, 0.67% phosphorus, and 20% lactose supplemented with 4.4 U vitamin D per gram diet.
db/db (B6) mice were grouped based on glucose levels at the age of 5 weeks. Treatments were started from 6 weeks and animals were treated with vehicle (30% 2-Hydroxypropyl-β Cyclodextrin, Sigma, H-107) or drugs 3 times a week. […] For db/db (BKS) mice, treatment started from age of 10 weeks.
For immunohistochemistry, FFPE tissues sections were deparaffinized and antigen retrieval performed using Vector Antigen Unmasking buffer (H3301). VectaStain ABC kit and ImmPACT DAB substrate (Vector Lab) were used to develop signal. Antibodies used: Pro-insulin (R&D, MAB13361, 1:100), insulin (Abcam, ab7842, 1:100), MAFA (Novus, NB400-137, 1:50), NKX6-1 (Cell Signaling, 54551, 1:100), and Glucagon (Abcam, ab82270, 1:100). DAPI-containing mounting media ([…] mounting medium for fluorescence) was used for nuclear staining. Immunostaining was visualized by ZEISS 780 confocal microscopy analysis.
ELISA were performed per manufacturer's instructions: mouse insulin (Millipore, EZRMI-13K), mouse proinsulin (Mercodia, NC9088881).

[5] = system: INS1 cells; test: Thapsigargin or tunicamycin-induced ER stress in INS1 cells (p-PERK Western); type: cell-based, rat; conditions: Cal pre-treated 1 hour, stressor overnight

## C=C1/C(=C\C=C2/CCC[C@]3(C)[C@@H]([C@H](C)/C=C/[C@@H](O)C4CC4)CC[C@@H]23)C[C@@H](O)C[C@@H]1O [Cal, calcipotriol]
[1]; 30 minutes IL1β exposure
  Nfkbia expression: increased
[1]; IL1β stress, after 24 hrs
  Nfkbia expression: not sufficient to induce a significant increase
[2]
  inflammatory and stress markers: reduced
[3]
  cytokine-induced morphological degeneration (insulin granules, ER): partially rescues the morphological degeneration
[4]; fasting
  serum insulin levels: higher fasting serum insulin levels
[4]; i.p. 3 times a week
  fasting blood glucose / glucose management: only limited improvements
[4]; immunohistochemistry of pancreatic sections
  ER stress markers Calnexin and PERK: reduced
[4]; pancreas sections
  intracellular insulin level (immunofluorescence): rescued
[5]
  ER stress (p-PERK): attenuated
